We go through one substance from patent publication US6159940A, “Method for modulating hemopoiesis” (Immunotech Developments Inc., priority 1999, dated 2000).

In this assay the test system is CFU-S. Nature of the assay: Regeneration of the CFU-S population in bone marrow of irradiated mice (4 Gy). It counts as in vivo. From the text: a) Scheme 1: mice received the peptide immediately after irradiation, daily. The mice were divided into groups: a control group--irradiated mice (4 Gy), and test groups--irradiated mice (4 Gy) received the peptide 1, 2, 3, and 4 times daily. Blood samples were taken four hours after the last peptide injection and on the 7th, 10th, and 16th day after the irradiation. Determined were total count of nucleated blood cells (NC) and lymphocyte percentage of them; nucleated cells and the CFU-S population in femoral bone marrow were counted on the 4th, 8th, and the 14th day.
From each group at least five mice were killed, their bone marrow was taken out and used to prepare the cell suspension, which was injected to lethally irradiated mice. After 9 days, CFU-S was counted in irradiated (4 Gy) donors receiving the peptide by counting the colonies grown on spleen. It was noted that with intramuscular administration of the peptide the CFU-S count in irradiated mice bone marrow was steadily growing starting from the 4th day, leaving the control CFU-S far behind.
b) According to scheme 2, the peptide injections were made starting from the 3rd day after the irradiation, at the same time of maximum depletion of the pool of mature nucleated cells and the bone marrow. The groups of mice were formed in the same way as in the previous scheme. Blood samples were taken 4 hours after the last injection i.e. on day 6, as well as on days 11, 14, 18, 21. Tables 9 and 10 present the data on karyocyte and lymphocyte counts in blood (per 1 mm^3) of mice treated according to scheme 2.

H-Ile-Glu-Trp-OH: the “cellular composition of bone marrow” value (scheme 1, i.m.) is recorded as “did not affect”. Moreover, the “regeneration of the CFU-S population” value (scheme 1, i.m. (FIG. 1)) is “markedly stimulated regeneration of the CFU-S population”. Further, the “CFU-S (absolute) in femoral bone marrow” value by setting is: (scheme 2, 1 Time, Day 7) 459 ± 26; (scheme 2, 1 Time, Day 11) 858 ± 67; (scheme 2, 1 Time, Day 14) 1197 ± 75; (scheme 2, 2 Time, Day 7) 298 ± 27; (scheme 2, 2 Time, Day 11) 846 ± 44; (scheme 2, 2 Time, Day 14) 902 ± 56. The “CFU-S (absolute) in femoral bone marrow” value runs as follows: (scheme 2, 3 Time, Day 7) 305 ± 33; (scheme 2, 3 Time, Day 11) 1077 ± 56; (scheme 2, 3 Time, Day 14) 1166 ± 68; (scheme 2, 4 Time, Day 7) 431 ± 48; (scheme 2, 4 Time, Day 11) 1147 ± 55; (scheme 2, 4 Time, Day 14) 1434 ± 89.
